Data reported in patent publication US9765074B2, “Inhibitors of the renal outer medullary potassium channel” (Merck Sharp & Dohme Corp., priority 2013, dated 2017).

These compounds were tested against T1, hROMK (hKir1.1) (Homo sapiens, UniProt P48048) (assay: Thallium Flux Assay (ROMK channel functional thallium flux, FLIPR-Tetra)). Settings: HEK293 cells stably expressing hROMK (hKir1.1); 30 min compound incubation.
T1 construct: expressed in transfected cells
T1 sequence (P48048 1-391): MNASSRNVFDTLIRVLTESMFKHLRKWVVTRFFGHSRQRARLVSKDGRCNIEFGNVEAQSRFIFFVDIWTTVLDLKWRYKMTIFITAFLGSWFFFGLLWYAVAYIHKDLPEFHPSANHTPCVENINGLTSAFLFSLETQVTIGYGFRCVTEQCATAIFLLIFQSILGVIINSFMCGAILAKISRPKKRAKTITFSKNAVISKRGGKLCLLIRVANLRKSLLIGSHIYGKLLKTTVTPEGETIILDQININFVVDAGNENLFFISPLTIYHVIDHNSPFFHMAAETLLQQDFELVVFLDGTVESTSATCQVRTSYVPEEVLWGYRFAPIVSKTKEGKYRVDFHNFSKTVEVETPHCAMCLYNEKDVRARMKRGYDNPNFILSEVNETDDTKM
Format: cell-based
Procedure, shortened: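 HEK293 cells stably expressing hKir1.1, loaded with FluxOR dye for 90 min, then preincubated with compound for 30 min at ambient temperature with 0.3 mM ouabain and probenecid. Stimulated with 3 mM thallium/0.3 mM potassium (final); fluorescence read ~10 min. Normalized to 3 μM reference ROMK inhibitor; IC50 from inhibition of flux.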

| SMILES | IC50 [nM] |
| --- | --- |
| CC1=C(N2CCC3(CCN(C[C@H](O)c4cncc(-n5cnnn5)c4)CC3)C2=O)COC1=O [Example 131, 8-{(2R)-2-hydroxy-2-[5-(1H-tetrazol-1-yl)pyridin-3-yl]ethyl}-2-(4-methyl-5-oxo-2,5-dihydrofuran-3-yl)-1-oxo-2-aza-8-azoniaspiro[4.5]decane] | 680 |
| Cc1cc([C@H](O)CN2CCC3(CC2)CCN(C2=CC(=O)OC2)C3=O)ncc1-n1cnnn1 [Example 6, 8-{(2R)-2-hydroxy-2-[4-methyl-5-(1H-tetrazol-1-yl)pyridin-2-yl]ethyl}-1-oxo-2-(5-oxo-2,5-dihydrofuran-3-yl)-2-aza-8-azoniaspiro[4.5]decane] | 50 |
| O=C1C=C(N2CCC3(CCN(C[C@H](O)c4ccc(-n5cnnn5)cc4F)CC3)C2=O)CO1 [Example 13, 8-{(2R)-2-[2-fluoro-4-(1H-tetrazol-1-yl)phenyl]-2-hydroxyethyl}-1-oxo-2-(5-oxo-2,5-dihydrofuran-3-yl)-2-aza-8-azoniaspiro[4.5]decane] | 20 |
| C[C@@H]1CC2(CCN(C[C@H](O)c3cnc(-n4cnnn4)cn3)CC2)C(=O)N1C1=CC(=O)OC1 [Example 79, (3R)-8-{(2S)-2-hydroxy-2-[5-(1H-tetrazol-1-yl)pyrazin-2-yl]ethyl}-3-methyl-1-oxo-2-(5-oxo-2,5-dihydrofuran-3-yl)-2-aza-8-azoniaspiro[4.5]decane] | 100 |
| CC1CC2(CC3CCC(C2)N3C[C@@H](O)c2cnc(-n3cnnn3)cn2)C(=O)N1C1=CC(=O)OC1 (single isomer, unassigned) [Example 92] | 20 |
| CC1=C(N2CCC3(CCN(C[C@H](O)c4ccc(-n5cnnn5)c(C)n4)CC3)C2=O)COC1=O [Example 30, 8-{(2S)-2-hydroxy-2-[6-methyl-5-(1H-tetrazol-1-yl)pyridin-2-yl]ethyl}-2-(4-methyl-5-oxo-2,5-dihydrofuran-3-yl)-1-oxo-2-aza-8-azoniaspiro[4.5]decane] | 20 |
| CC1=C(N2CCC3(CCN(C[C@@H](O)c4ccnc(-n5cnnn5)c4)CC3)C2=O)COC1=O [Example 130, 8-{(2S)-2-hydroxy-2-[2-(1H-tetrazol-1-yl)pyridin-4-yl]ethyl}-2-(4-methyl-5-oxo-2,5-dihydrofuran-3-yl)-1-oxo-2-aza-8-azoniaspiro[4.5]decane] | 160 |
| CC1CC2(CC3CCC(C2)N3C[C@H](O)c2cnc(-n3cnnn3)cn2)C(=O)N1C1=CC(=O)OC1 (single isomer, unassigned) [Example 91] | 30 |
| CC1CC2(CC3CCC(C2)N3C[C@H](O)c2ccc(-n3cnnn3)nc2)C(=O)N1C1=CC(=O)OC1 (single isomer, unassigned) [Example 100] | 10 |
| CC1=C(N2CCC3(CCN(C[C@H](O)c4ccc(-n5cnnn5)nc4C)CC3F)C2=O)COC1=O (single isomer, unassigned) [Example 117] | 50 |
| CC1=C(N2CCC3(CCN(C[C@H](O)c4cnc(-n5cnnn5)nc4C)CC3)C2=O)COC1=O [Example 85, 8-{(2R)-2-hydroxy-2-[4-methyl-2-(1H-tetrazol-1-yl)pyrimidin-5-yl]ethyl}-2-(4-methyl-5-oxo-2,5-dihydrofuran-3-yl)-1-oxo-2-aza-8-azoniaspiro[4.5]decane] | 30 |
| CC1=C(N2C(=O)C3(CCN(C[C@H](O)c4ccc(-n5cnnn5)nn4)CC3)CC2C)COC1=O (single isomer, unassigned) [Example 125] | 60 |
| CC1=C(N2CCC3(CCN(C[C@@H](O)c4cccc(-n5cnnn5)n4)CC3)C2=O)COC1=O [Example 74, 8-{(2R)-2-hydroxy-2-[6-(1H-tetrazol-1-yl)pyridin-2-yl]ethyl}-2-(4-methyl-5-oxo-2,5-dihydrofuran-3-yl)-1-oxo-2-aza-8-azoniaspiro[4.5]decane] | 90 |
| CC1=C(N2CCC3(CCN(C[C@H](O)c4cnc(-n5cnnn5)c(C)n4)CC3)C2=O)COC1=O [Example 87, 8-{(2S)-2-hydroxy-2-[6-methyl-5-(1H-tetrazol-1-yl)pyrazin-2-yl]ethyl}-2-(4-methyl-5-oxo-2,5-dihydrofuran-3-yl)-1-oxo-2-aza-8-azoniaspiro[4.5]decane] | 50 |
| CC1=C(N2CC(O)C3(CCN(C[C@H](O)c4ccc(-n5cnnn5)nc4)CC3)C2=O)COC1=O (single isomer, unassigned) [Example 111] | 90 |
| CC1=C(N2CCC3(CC4COCC(C3)N4CCc3ccc(-n4cnnn4)nn3)C2=O)COC1=O [Example 239, (1R,5S,9r)-1′-(4-methyl-5-oxo-2,5-(dihydrofuran-3-yl)-2′-oxo-9-{2-[6-(1H-tetrazol-1-yl)pyridazin-3-yl]ethyl}spiro[7-oxa-9-azoniabicyclo[3.3.1]nonane-3,3′-pyrrolidine]] | 320 |
| CC1=C(N2CCC3(CCN(C[C@H](O)c4cnc(-n5cnnn5)c(F)c4)CC3)C2=O)COC1=O [Example 26, 8-{(2R)-2-[5-fluoro-6-(1H-tetrazol-1-yl)pyridin-3-yl]-2-hydroxyethyl}-2-(4-methyl-5-oxo-2,5-dihydrofuran-3-yl)-1-oxo-2-aza-8-azoniaspiro[4.5]decane] | 40 |
| CC1=C(N2C(=O)C3(CCN(C[C@@H](O)c4cnc(-n5cnnn5)cn4)CC3)CC2C)COC1=O (single isomer, unassigned) [Example 68] | 230 |

Next, values leading:

| IC50 [nM] | SMILES |
| --- | --- |
| 20 | CC1=C(N2CCC3(CCN(C(C)(C)C(O)c4ccc(-n5cnnn5)cn4)CC3)C2=O)COC1=O (single isomer, unassigned) [Example 300] |
| 20 | COc1nc(-n2cnnn2)ccc1[C@H](O)CN1CCC2(CC1)CCN(C1=C(C)C(=O)OC1)C2=O [Example 150, 8-{(2S)-2-hydroxy-2-[2-methoxy-6-(1H-tetrazol-1-yl)pyridin-3-yl]ethyl}-2-(4-methyl-5-oxo-2,5-dihydrofuran-3-yl)-2,8-diazaspiro[4.5]decan-1-one] |
| 10 | O=C1C=C(N2C(=O)C3(CCN(C[C@H](O)c4cnc(-n5cnnn5)cn4)CC3)CC23CC3)CO1 [Example 167, 8-{(2S)-2-hydroxy-2-[5-(1H-tetrazol-1-yl)pyrazin-2-yl]ethyl}-12-(5-oxo-2,5-dihydrofuran-3-yl)-8,12-diazadispiro[2.1.5.2]dodecan-11-one] |
| 70 | CO[C@@H](CN1CCC2(CC1)CCN(C1=C(C)C(=O)OC1)C2=O)c1ccc(-n2cnnn2)cn1 [Example 282, 8-{(2S)-2-methoxy-2-[5-(1H-tetrazol-1-yl)pyridin-2-yl]ethyl}-2-(4-methyl-5-oxo-2,5-dihydrofuran-3-yl)-1-oxo-2-aza-8-azoniaspiro[4.5]decane] |
| 50 | CC1=C(N2C=CC3(CCN(C[C@H](O)c4ccc(-n5cnnn5)nn4)CC3)C2=O)COC1=O [Example 146, 8-{(2S)-2-hydroxy-2-[6-(1H-tetrazol-1-yl)pyridazin-3-yl]ethyl}-2-(4-methyl-5-oxo-2,5-dihydrofuran-3-yl)-1-oxo-2-aza-8-azoniaspiro[4.5]dec-3-ene] |
| 100 | CC1=C(N2CCC3(CCN(C[C@@H](O)c4ncc(-n5cnnn5)cc4F)CC3)C2=O)COC1=O [Example 148, 8-{(2R)-2-[3-fluoro-5-(1H-tetrazol-1-yl)pyridin-2-yl]-2-hydroxyethyl}-2-(4-methyl-5-oxo-2,5-dihydrofuran-3-yl)-2,8-diazaspiro[4.5]decan-1-one] |
| 10 | CC1=C(N2CCC3(CCN(CCc4ccc(-n5cnnn5)cn4)CC3)C2=O)COC1=O [Example 238, 2-(4-methyl-5-oxo-2,5-dihydrofuran-3-yl)-1-oxo-8-{2-[5-(1H-tetrazol-1-yl)pyridin-2-yl]ethyl}-2-aza-8-azoniaspiro[4.5]decane] |
| 790 | COC1CN(C[C@H](O)c2cnc(-n3cnnn3)cn2)CCC12CCN(C1=C(C)C(=O)OC1)C2=O (single isomer, unassigned) [Example 178] |
| 40 | O=C1C=C(N2C=CC3(CCN(CCc4ccc(-n5cnnn5)nn4)CC3)C2=O)CO1 [Example 249, 1-oxo-2-(5-oxo-2,5-dihydrofuran-3-yl)-8-{2-[6-(1H-tetrazol-1-yl)pyridazin-3-yl]ethyl}-2-aza-8-azoniaspiro[4.5]dec-3-ene] |
| 90 | CC1=C(N2CCC3(CCN(C[C@H](C)c4ccc(-n5cnnn5)nn4)CC3)C2=O)COC1=O (single isomer, unassigned) [Example 290] |
| 10 | CC1=C(N2CCC3(CCN(CCc4ccc(-n5cnnn5)nc4)CC3)C2=O)COC1=O [Example 233] |
| 140 | CO[C@H](CN1CCC2(CC1)CCN(C1=C(C)C(=O)OC1)C2=O)c1cnc(-n2cnnn2)cn1 [Example 281, 8-{(2R)-2-methoxy-2-[5-(1H-tetrazol-1-yl)pyrazin-2-yl]ethyl}-2-(4-methyl-5-oxo-2,5-dihydrofuran-3-yl)-1-oxo-2-aza-8-azoniaspiro[4.5]decane] |
| 20 | C[C@H]1CC2(CCN(CCc3cnc(-n4cnnn4)cn3)CC2)C(=O)N1C1=CC(=O)OC1 [Example 246, 3(S)-methyl-1-oxo-2-(5-oxo-2,5-dihydrofuran-3-yl)-8-{2-[5-(1H-tetrazol-1-yl)pyrazin-2-yl]ethyl}-2-aza-8-azoniaspiro[4.5]decane] |
| 80 | CC1=C(N2C(=O)C3(CCN(C[C@@H](O)c4ncc(-n5cnnn5)cc4C)CC3)CC2C)COC1=O (single isomer, unassigned) [Example 138] |
| 150 | CC1=C(N2CCC3(CCN(C[C@H](O)c4ccc(-n5cnnn5)nc4C)CC3O)C2=O)COC1=O (single isomer, unassigned) [Example 203] |
